Read-outs that look alike come from different tables or passages of the source. Blank lines part the entries; values can stand above or below the molecule they belong to.
Tests used:
[1] = test system: MCF-7 cells; assay: MCF-7 cell proliferation (CellTiter-Glo cell viability); type: cell-based, human; details: for IC50: 48 hours of treatment, read-out: concentration inhibiting proliferation of MCF-7 cells by 50%; for inhibition of MCF-7 cell growth: 50 uM
[2] = test system: CaLu-1 cells; assay: Calu-1 wound migration after siRNA transfection; type: cell-based, human; details: wound 48 hours after, 19 hr
Method: Calu-1 cells were transiently transfected in suspension with either control siRNA, RSK1-specific siRNA, RSK2-specific siRNA or both RSK-1 and RSK2-specific siRNA. […] After four hours, the transfection medium was removed and the cells were plated in […] tissue-culture clusters. Forty-eight hours after transfection, scratches were made in the monolayer of cells using sterile, disposable micropipette tips. Images were captured-immediately following the wounding, and 19 hours after wounding. […] By 19 hr, the cells transfected with control siRNA have migrated into the wound. […] Thus, RSK activity is required for Calu-1 migration. More particularly, the ability of the entire monolayer to respond to the wound is depressed in the SL0101-treated cells as well as the siRNA transfected.

[3] = test system: MCF-10A cells; assay: MCF-10A cell proliferation; type: cell-based, human
Method: The cell number was measured after 48 h of treatment. Values given are the fold proliferation as a percentage of that observed with vehicle-treated cells. Points, mean (n=2 in quadruplicate); bars=SD.
FIGS. 8A-8D SL0101-1 inhibits the proliferation of cancer cells but not normal cells. […] Cell viability was measured at indicated time points. Proliferation assays were conducted using CellTiter-Glo Luminescent Cell Viability Assay (Promega), performed 44 hrs after treatment for FIGS. 8A &B and at indicated points for FIG. 8C. The data are expressed relative to time 0.
(§1) Cell Culture. For proliferation studies cells were seeded at 2500 to 5000 cells per well in 96 well tissue culture plates in the appropriate medium as described by American Type Culture Collection. After 24 hr, the medium was replaced with medium containing compound or vehicle as indicated. Cell viability was measured at indicated time points using CellTiter-Glo™ assay reagent (Promega) according to manufacturer's protocol. For in vivo inhibition studies, cells were seeded at 2.5×10^5 cells/well in 12 well cell culture clusters. After 24 hr, the cells were serum starved for 24 hr then incubated with compound or vehicle for 3 hr prior to a 30 min PDB stimulation. Cells were lysed as previously described (J. Biol. Chem. 273, 13317-13323 (1998)). The lysates were normalized for total protein, electrophoresed and immunoblotted. For cell imaging, Ha-Ras-transformed NIH/3T3 cells were seeded on LABTEK II chamber slides (Nalge) at a density of 1×10^4 cells/well. After 24 hr, fresh medium was added the indicated compounds or vehicle. Images were taken 48 hr after treatment at a magnification of 20×.

[4] = test system: HUVEC cells; assay: VEGF-induced capillary network formation in HUVEC cells; type: cell-based, human; details: 20 μM, 10 ng/ml VEGF, 20 hours
Method: Interfering with tube formation is a characteristic common to anti-angiogenic treatments. HUVEC cells were seeded at a density of 1×10^5 cells per well in 24-well culture dishes coated in growth factor-reduced Matrigel (BD Biosciences). […] The cells were incubated at 37° C. for 20 hours. Images of the cells were captured for analysis of the capillary-like network.

[5] = target: RSK2 (Homo sapiens, UniProt P51812)
[6] = test system: p140, a RSK substrate; assay: PDB-induced p140 phosphorylation in MCF-7 cells (immunoblot); type: cell-based, human; details: 50 μM, 3 hr pre-incubation, 500 nM PDB 30 min
Method: To determine whether SL0101-1 inhibits RSK in intact cells, phosphorylation of p140, a RSK substrate of unknown function, was examined in a human breast cancer cell line, MCF-7. MCF-7 and MCF-10A cells were pre-incubated with vehicle, 50 μM U0126 or the indicated concentration of SL0101-1 for 3 hr (FIG. 8D). Cells were treated with 500 nM PDB for 30 min prior to lysis. Protein concentration of lysates was measured and lysates were electrophoresed, transferred and immunoblotted. […] Pre-incubation of cells with 100 μM SL0101-1 abrogates phorbol dibutyrate (PDB)-induced p140 phosphorylation as does 50 μM U0126, a MEK inhibitor.
as §1, with “The lysates were normalized for total protein, electrophoresed and immunoblotted. For cell imaging, Ha-Ras-transformed NIH/3T3 cells were seeded on LABTEK II chamber slides (Nalge) at a density of 1×10^4 cells/well. After 24 hr, fresh medium was added the indicated compounds or vehicle. Images were taken 48 hr after treatment at a magnification of 20×.” left out

[7] = indicated concentration, 48 h of treatment

Sequence of RSK2 (P51812 1-397 limits assumed): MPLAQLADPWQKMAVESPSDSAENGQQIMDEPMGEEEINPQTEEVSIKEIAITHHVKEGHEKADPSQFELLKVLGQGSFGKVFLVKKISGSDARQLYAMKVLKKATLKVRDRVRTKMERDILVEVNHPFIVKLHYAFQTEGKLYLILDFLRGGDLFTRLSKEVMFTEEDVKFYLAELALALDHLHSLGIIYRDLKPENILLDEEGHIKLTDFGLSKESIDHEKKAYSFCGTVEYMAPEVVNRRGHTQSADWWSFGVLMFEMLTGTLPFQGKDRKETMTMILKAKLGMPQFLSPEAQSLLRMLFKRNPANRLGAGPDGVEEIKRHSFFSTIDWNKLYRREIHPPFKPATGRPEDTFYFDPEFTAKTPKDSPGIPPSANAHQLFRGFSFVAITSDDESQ

Molecule: CC(=O)OC1C(C)CC(Oc2c(-c3ccc(O)cc3)oc3cc(O)cc(O)c3c2=O)C(O)C1O [compound 12, Kaempferol L-carbarhamnoside 4″-acetate]
proliferation of MCF-7 cells [1, 7]: inhibit proliferation

Molecule: RSK2-specific siRNA: custom oligonucleotide to Rsk2 mRNA, AACCUAUGGGAGAGGAGGAGA; SEQ ID NO: 2 (listed as RNA, chemistry not given here; listed as Homo sapiens)
migration of Calu-1 cells into wound [2]: reduced ability to migrate into the wound

IC50 [1]: ~30 µM
Molecule: CC(=O)OC1C(C)CC(Oc2c(-c3ccc(O)cc3)oc3cc(O)cc(O)c3c2=O)C(OC(C)=O)C1O [compound 13, Kaempferol L-carbarhamnoside 2″,4″-diacetate]
proliferation of MCF-7 cells [1, 7]: inhibit proliferation

IC50 ([1]; Homo sapiens, MCF7): ~30 µM
Molecule: CC(=O)OC1C(C)CC(Oc2c(-c3ccc(O)cc3)oc3cc(O)cc(O)c3c2=O)C(O)C1OC(C)=O [compound 14, Kaempferol L-carbarhamnoside 3″,4″-diacetate]
proliferation of MCF-7 cells [1, 7]: inhibit proliferation

Molecule: O=c1c(O)c(-c2ccc(O)cc2)oc2cc(O)cc(O)c12 [kaempferol]
growth of MCF-7 cells ([1]; concentration not given): slows growth
growth of MCF-10A cells ([3]; concentration not given): slows growth

Molecule: RSK1-specific siRNA: custom oligonucleotide to Rsk1 mRNA, AAGAAGCUGGACUUCAGCCGU; SEQ ID NO: 1 (listed as RNA, chemistry not given here; listed as Homo sapiens)
migration of Calu-1 cells into wound [2]: reduced ability to migrate into the wound

Molecule: CC(C)c1cc(/C=C(\C#N)C(=O)NCCCc2ccccc2)cc(C(C)C)c1O [SU1498]
capillary-like network formation [4]: rounded nodes with few tube-like projections

IC50 [5]: ~0.26 µM
Molecule: CC(=O)OC1C(C)OC(Oc2c(-c3ccc(O)cc3)oc3cc(O)cc(O)c3c2=O)C(OC(C)=O)C1O [2″,4″-di-O-acetyl-SL0101, kaempferol 3-O-(2″,4″-di-O-acetyl-α-L-rhamnopyranoside)]
inhibition of MCF-7 cell growth [1]: similarly effective at inhibiting MCF-7 cell growth

Molecule: CC(=O)O[C@@H]1[C@@H](OC(C)=O)[C@H](C)O[C@@H](Oc2c(-c3ccc(O)cc3)oc3cc(O)cc(O)c3c2=O)[C@@H]1OC(C)=O [3Ac-SL0101, kaempferol 3-O-(2″,3″,4″-tri-O-acetyl-α-L-rhamnopyranoside)]
proliferation of MCF-7 cells [1, 7]: selectively inhibits MCF-7 breast cancer cell proliferation
proliferation of MCF-10A (nontransformed) cells [3, 7]: not nontransformed breast cell proliferation

IC50 [5]: ~0.14 µM
Molecule: CC(=O)OC1C(C)OC(Oc2c(-c3ccc(O)cc3)oc3cc(O)cc(O)c3c2=O)C(O)C1O [4″-mono-O-acetyl-SL0101, kaempferol 3-O-(4″-mono-O-acetyl-α-L-rhamnopyranoside)]
inhibition of MCF-7 cell growth [1]: did not inhibit MCF-7 cell proliferation

IC50 ([1]; Homo sapiens, MCF7): ~30 µM
Molecule: CCCC1OC(Oc2c(-c3ccc(O)cc3)oc3cc(O)cc(O)c3c2=O)C(O)C(OC(C)=O)C1OC(C)=O [compound 16, Kaempferol-6″ethyl-L-rhamnoside-3″,4″-diacetate]
proliferation of MCF-7 cells [1, 7]: inhibit proliferation

Molecule: Cn1cc(C2=C(c3cn(CCCSC(=N)N)c4ccccc34)C(=O)NC2=O)c2ccccc21 [Ro 318220]
proliferation of MCF-7 cells ([1]; 500 nM): attenuated proliferation
proliferation of MCF-10A cells ([3]; 500 nM): attenuated proliferation

Molecule: N#CC(=C(/N)Sc1ccccc1N)/C(C#N)=C(\N)Sc1ccccc1N [U0126]
proliferation of MCF-7 cells ([1]; 50 μM (FIG. 8A)): halted proliferation
PDB-induced p140 phosphorylation [6]: abrogates
proliferation of MCF-10A cells ([3]; 50 μM (FIG. 8A)): halted proliferation
